Measurements as given in patent US20230111310A1, “CARBOXYLIC ACID DERIVATIVE-SUBSTITUTED IMINO ARYL COMPOUND, PREPARATION METHOD THEREFOR, HERBICIDAL COMPOSITION AND USE THEREOF” (Qingdao Kingagroot Chemical Compound Co., Ltd., priority 2020, published 2023).

system: Echinochloa crusgalli; experiment: Weeding effect in post-emergence stage; type: in vivo; details: Dose 15 g/ha; fresh weight control rate level
Method in brief: (§1)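 Post-emergence spray tower; 2-3 leaf plants (2 wk after sowing, soil pots, greenhouse). Formulation: acetone, Tween 80, methyl oleate EC 1.5 liter/ha as synergist, water. Rates 500–7.5 g/ha. Growth control rate read at 3 wk; n=3, averaged.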

SMILES	Weeding effect in post-emergence stage, Echinochloa crusgalli (level)
COC(=O)C(OC)O/N=C/c1cc(-n2c(=O)cc(C(F)(F)F)n(C(OC)C(=O)OC)c2=O)c(F)cc1Cl (stereo not drawn) [Compound 493]	5 (Level 5: growth control rate is above 85%)
COC(=O)C(OC)(OC)O/N=C/c1cc(-n2c(=O)cc(C(F)(F)F)n(C)c2=O)c(F)cc1Cl [Compound 494]	5 (Level 5: growth control rate is above 85%)
CC(O/N=C/c1cc(-n2c(=O)cc(C(F)(F)F)n(C)c2=O)c(F)cc1Cl)C(=O)OCc1ccc(Cl)nc1 (stereo not drawn) [Compound 495]	5 (Level 5: growth control rate is above 85%)
COC(=O)C(CCO)O/N=C/c1cc(-n2c(=O)cc(C(F)(F)F)n(C)c2=O)c(F)cc1Cl (stereo not drawn) [Compound 496]	5 (Level 5: growth control rate is above 85%)
COC(=O)C(CCCl)O/N=C/c1cc(-n2c(=O)cc(C(F)(F)F)n(C)c2=O)c(F)cc1Cl (stereo not drawn) [Compound 497]	5 (Level 5: growth control rate is above 85%)
CC(O/N=C/c1cc(-n2c(=O)cc(C(F)(F)F)n(C)c2=O)c(F)cc1Cl)C(=O)OCCC1OCCO1 (stereo not drawn) [Compound 498]	5 (Level 5: growth control rate is above 85%)
CC(O/N=C/c1cc(-n2c(=O)cc(C(F)(F)F)n(C)c2=O)c(F)cc1Cl)C(N)=O (stereo not drawn) [Compound 499]	5 (Level 5: growth control rate is above 85%)
CC(Cl)=CCOC(=O)C(C)ON=Cc1cc(-n2c(=O)cc(C(F)(F)F)n(C)c2=O)c(F)cc1Cl (stereo not drawn) [Compound 500]	5 (Level 5: growth control rate is above 85%)

system: Digitaria sanguinalis; experiment: Weeding effect in post-emergence stage; type: in vivo; details: Dose 15 g/ha; fresh weight control rate level
Method in brief: as §1

SMILES	Weeding effect in post-emergence stage, Digitaria sanguinalis (level)
COC(=O)C(OC)O/N=C/c1cc(-n2c(=O)cc(C(F)(F)F)n(C(OC)C(=O)OC)c2=O)c(F)cc1Cl (stereo not drawn) [Compound 493]	5 (Level 5: growth control rate is above 85%)
COC(=O)C(OC)(OC)O/N=C/c1cc(-n2c(=O)cc(C(F)(F)F)n(C)c2=O)c(F)cc1Cl [Compound 494]	5 (Level 5: growth control rate is above 85%)
CC(O/N=C/c1cc(-n2c(=O)cc(C(F)(F)F)n(C)c2=O)c(F)cc1Cl)C(=O)OCc1ccc(Cl)nc1 (stereo not drawn) [Compound 495]	5 (Level 5: growth control rate is above 85%)
COC(=O)C(CCO)O/N=C/c1cc(-n2c(=O)cc(C(F)(F)F)n(C)c2=O)c(F)cc1Cl (stereo not drawn) [Compound 496]	5 (Level 5: growth control rate is above 85%)
COC(=O)C(CCCl)O/N=C/c1cc(-n2c(=O)cc(C(F)(F)F)n(C)c2=O)c(F)cc1Cl (stereo not drawn) [Compound 497]	5 (Level 5: growth control rate is above 85%)
CC(O/N=C/c1cc(-n2c(=O)cc(C(F)(F)F)n(C)c2=O)c(F)cc1Cl)C(=O)OCCC1OCCO1 (stereo not drawn) [Compound 498]	5 (Level 5: growth control rate is above 85%)
CC(O/N=C/c1cc(-n2c(=O)cc(C(F)(F)F)n(C)c2=O)c(F)cc1Cl)C(N)=O (stereo not drawn) [Compound 499]	5 (Level 5: growth control rate is above 85%)
CC(Cl)=CCOC(=O)C(C)ON=Cc1cc(-n2c(=O)cc(C(F)(F)F)n(C)c2=O)c(F)cc1Cl (stereo not drawn) [Compound 500]	5 (Level 5: growth control rate is above 85%)

system: Eleusine indica; experiment: Weeding effect in post-emergence stage; type: in vivo; details: Dose 15 g/ha; fresh weight control rate level
Method in brief: as §1

SMILES	Weeding effect in post-emergence stage, Eleusine indica (level)
COC(=O)C(OC)O/N=C/c1cc(-n2c(=O)cc(C(F)(F)F)n(C(OC)C(=O)OC)c2=O)c(F)cc1Cl (stereo not drawn) [Compound 493]	5 (Level 5: growth control rate is above 85%)
COC(=O)C(OC)(OC)O/N=C/c1cc(-n2c(=O)cc(C(F)(F)F)n(C)c2=O)c(F)cc1Cl [Compound 494]	5 (Level 5: growth control rate is above 85%)
CC(O/N=C/c1cc(-n2c(=O)cc(C(F)(F)F)n(C)c2=O)c(F)cc1Cl)C(=O)OCc1ccc(Cl)nc1 (stereo not drawn) [Compound 495]	5 (Level 5: growth control rate is above 85%)
COC(=O)C(CCO)O/N=C/c1cc(-n2c(=O)cc(C(F)(F)F)n(C)c2=O)c(F)cc1Cl (stereo not drawn) [Compound 496]	5 (Level 5: growth control rate is above 85%)
COC(=O)C(CCCl)O/N=C/c1cc(-n2c(=O)cc(C(F)(F)F)n(C)c2=O)c(F)cc1Cl (stereo not drawn) [Compound 497]	5 (Level 5: growth control rate is above 85%)
CC(O/N=C/c1cc(-n2c(=O)cc(C(F)(F)F)n(C)c2=O)c(F)cc1Cl)C(=O)OCCC1OCCO1 (stereo not drawn) [Compound 498]	5 (Level 5: growth control rate is above 85%)
CC(O/N=C/c1cc(-n2c(=O)cc(C(F)(F)F)n(C)c2=O)c(F)cc1Cl)C(N)=O (stereo not drawn) [Compound 499]	5 (Level 5: growth control rate is above 85%)
CC(Cl)=CCOC(=O)C(C)ON=Cc1cc(-n2c(=O)cc(C(F)(F)F)n(C)c2=O)c(F)cc1Cl (stereo not drawn) [Compound 500]	5 (Level 5: growth control rate is above 85%)

system: Alopecurus japonicus; experiment: Weeding effect in post-emergence stage; type: in vivo; details: Dose 15 g/ha; fresh weight control rate level
Method in brief: as §1

SMILES	Weeding effect in post-emergence stage, Alopecurus japonicus (level)
COC(=O)C(OC)O/N=C/c1cc(-n2c(=O)cc(C(F)(F)F)n(C(OC)C(=O)OC)c2=O)c(F)cc1Cl (stereo not drawn) [Compound 493]	5 (Level 5: growth control rate is above 85%)
COC(=O)C(OC)(OC)O/N=C/c1cc(-n2c(=O)cc(C(F)(F)F)n(C)c2=O)c(F)cc1Cl [Compound 494]	5 (Level 5: growth control rate is above 85%)
CC(O/N=C/c1cc(-n2c(=O)cc(C(F)(F)F)n(C)c2=O)c(F)cc1Cl)C(=O)OCc1ccc(Cl)nc1 (stereo not drawn) [Compound 495]	5 (Level 5: growth control rate is above 85%)
COC(=O)C(CCO)O/N=C/c1cc(-n2c(=O)cc(C(F)(F)F)n(C)c2=O)c(F)cc1Cl (stereo not drawn) [Compound 496]	5 (Level 5: growth control rate is above 85%)
COC(=O)C(CCCl)O/N=C/c1cc(-n2c(=O)cc(C(F)(F)F)n(C)c2=O)c(F)cc1Cl (stereo not drawn) [Compound 497]	5 (Level 5: growth control rate is above 85%)
CC(O/N=C/c1cc(-n2c(=O)cc(C(F)(F)F)n(C)c2=O)c(F)cc1Cl)C(=O)OCCC1OCCO1 (stereo not drawn) [Compound 498]	5 (Level 5: growth control rate is above 85%)
CC(O/N=C/c1cc(-n2c(=O)cc(C(F)(F)F)n(C)c2=O)c(F)cc1Cl)C(N)=O (stereo not drawn) [Compound 499]	5 (Level 5: growth control rate is above 85%)
CC(Cl)=CCOC(=O)C(C)ON=Cc1cc(-n2c(=O)cc(C(F)(F)F)n(C)c2=O)c(F)cc1Cl (stereo not drawn) [Compound 500]	5 (Level 5: growth control rate is above 85%)

system: Setaria viridis; experiment: Weeding effect in post-emergence stage; type: in vivo; details: Dose 15 g/ha; fresh weight control rate level
Method in brief: as §1

SMILES	Weeding effect in post-emergence stage, Setaria viridis (level)
COC(=O)C(OC)O/N=C/c1cc(-n2c(=O)cc(C(F)(F)F)n(C(OC)C(=O)OC)c2=O)c(F)cc1Cl (stereo not drawn) [Compound 493]	5 (Level 5: growth control rate is above 85%)
COC(=O)C(OC)(OC)O/N=C/c1cc(-n2c(=O)cc(C(F)(F)F)n(C)c2=O)c(F)cc1Cl [Compound 494]	5 (Level 5: growth control rate is above 85%)
CC(O/N=C/c1cc(-n2c(=O)cc(C(F)(F)F)n(C)c2=O)c(F)cc1Cl)C(=O)OCc1ccc(Cl)nc1 (stereo not drawn) [Compound 495]	5 (Level 5: growth control rate is above 85%)
COC(=O)C(CCO)O/N=C/c1cc(-n2c(=O)cc(C(F)(F)F)n(C)c2=O)c(F)cc1Cl (stereo not drawn) [Compound 496]	5 (Level 5: growth control rate is above 85%)
COC(=O)C(CCCl)O/N=C/c1cc(-n2c(=O)cc(C(F)(F)F)n(C)c2=O)c(F)cc1Cl (stereo not drawn) [Compound 497]	5 (Level 5: growth control rate is above 85%)
CC(O/N=C/c1cc(-n2c(=O)cc(C(F)(F)F)n(C)c2=O)c(F)cc1Cl)C(=O)OCCC1OCCO1 (stereo not drawn) [Compound 498]	5 (Level 5: growth control rate is above 85%)
CC(O/N=C/c1cc(-n2c(=O)cc(C(F)(F)F)n(C)c2=O)c(F)cc1Cl)C(N)=O (stereo not drawn) [Compound 499]	5 (Level 5: growth control rate is above 85%)
CC(Cl)=CCOC(=O)C(C)ON=Cc1cc(-n2c(=O)cc(C(F)(F)F)n(C)c2=O)c(F)cc1Cl (stereo not drawn) [Compound 500]	5 (Level 5: growth control rate is above 85%)

system: Abutilon theophrasti; experiment: Weeding effect in post-emergence stage; type: in vivo; details: Dose 15 g/ha; fresh weight control rate level
Method in brief: as §1

SMILES	Weeding effect in post-emergence stage, Abutilon theophrasti (level)
COC(=O)C(OC)O/N=C/c1cc(-n2c(=O)cc(C(F)(F)F)n(C(OC)C(=O)OC)c2=O)c(F)cc1Cl (stereo not drawn) [Compound 493]	5 (Level 5: growth control rate is above 85%)
COC(=O)C(OC)(OC)O/N=C/c1cc(-n2c(=O)cc(C(F)(F)F)n(C)c2=O)c(F)cc1Cl [Compound 494]	5 (Level 5: growth control rate is above 85%)
CC(O/N=C/c1cc(-n2c(=O)cc(C(F)(F)F)n(C)c2=O)c(F)cc1Cl)C(=O)OCc1ccc(Cl)nc1 (stereo not drawn) [Compound 495]	5 (Level 5: growth control rate is above 85%)
COC(=O)C(CCO)O/N=C/c1cc(-n2c(=O)cc(C(F)(F)F)n(C)c2=O)c(F)cc1Cl (stereo not drawn) [Compound 496]	5 (Level 5: growth control rate is above 85%)
COC(=O)C(CCCl)O/N=C/c1cc(-n2c(=O)cc(C(F)(F)F)n(C)c2=O)c(F)cc1Cl (stereo not drawn) [Compound 497]	5 (Level 5: growth control rate is above 85%)
CC(O/N=C/c1cc(-n2c(=O)cc(C(F)(F)F)n(C)c2=O)c(F)cc1Cl)C(=O)OCCC1OCCO1 (stereo not drawn) [Compound 498]	5 (Level 5: growth control rate is above 85%)
CC(O/N=C/c1cc(-n2c(=O)cc(C(F)(F)F)n(C)c2=O)c(F)cc1Cl)C(N)=O (stereo not drawn) [Compound 499]	5 (Level 5: growth control rate is above 85%)
CC(Cl)=CCOC(=O)C(C)ON=Cc1cc(-n2c(=O)cc(C(F)(F)F)n(C)c2=O)c(F)cc1Cl (stereo not drawn) [Compound 500]	5 (Level 5: growth control rate is above 85%)
